The values below come from ChEMBL document CHEMBL1143395, “Cloning, expression, post-translational modifications and inhibition studies on the latest mammalian carbonic anhydrase isoform, CA XV” (J Med Chem, 2009).

The target in one test is T1, Carbonic anhydrase 15 (Mus musculus, UniProt Q99N23).
T1 sequence (Q99N23 whole entry): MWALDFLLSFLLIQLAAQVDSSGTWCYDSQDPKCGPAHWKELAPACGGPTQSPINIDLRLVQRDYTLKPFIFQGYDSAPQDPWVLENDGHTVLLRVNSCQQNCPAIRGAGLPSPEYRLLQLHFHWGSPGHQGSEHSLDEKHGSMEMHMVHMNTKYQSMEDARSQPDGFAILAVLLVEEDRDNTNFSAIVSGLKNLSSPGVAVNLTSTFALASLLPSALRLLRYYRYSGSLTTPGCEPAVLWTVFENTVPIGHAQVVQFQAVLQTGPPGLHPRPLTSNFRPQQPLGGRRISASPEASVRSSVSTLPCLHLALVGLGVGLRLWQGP

The target of a further test is Carbonic anhydrase 6 (Homo sapiens, UniProt P23280).
Sequence of Carbonic anhydrase 6 (P23280 whole entry): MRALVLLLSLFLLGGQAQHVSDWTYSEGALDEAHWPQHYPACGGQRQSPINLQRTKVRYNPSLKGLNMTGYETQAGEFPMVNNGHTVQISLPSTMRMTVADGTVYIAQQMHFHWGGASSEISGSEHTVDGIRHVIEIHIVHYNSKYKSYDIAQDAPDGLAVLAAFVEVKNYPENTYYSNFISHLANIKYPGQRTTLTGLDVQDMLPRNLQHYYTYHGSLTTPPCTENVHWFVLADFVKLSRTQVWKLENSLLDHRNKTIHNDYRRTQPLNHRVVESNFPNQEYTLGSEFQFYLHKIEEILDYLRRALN

`NNc1ccccc1S(N)(=O)=O`: the Ki (usually a dissociation constant, usually derived from enzyme kinetics or from competition with a known ligand) on Carbonic anhydrase 15 is 6900 nM. The same measure, in the same setting: under `Nc1nnc(S(N)(=O)=O)s1` stands 48 nM. Still for that read-out and setting: under `Nc1ccc(S(=O)(=O)NCc2ccc(S(N)(=O)=O)cc2)cc1` stands 49 nM; under `Nc1cc(Cl)c(S(N)(=O)=O)cc1S(N)(=O)=O`, 757 nM.

Take `NS(=O)(=O)c1nnc(-c2ccccc2Cl)s1`: the Ki at Carbonic anhydrase 15 was determined as 60 nM.

Turning to `Nc1nccc(Nc2ccc(S(N)(=O)=O)cc2)n1`, the Ki on Carbonic anhydrase 15 was determined as 67 nM. Same read-out and setting: under `NS(=O)(=O)c1nc2ccc(O)cc2s1` stands 64 nM.

Consider `Nc1ccccc1S(N)(=O)=O`, for which the Ki on Carbonic anhydrase 15 came to 8810 nM. On the same count and under the same terms, under `Nc1ccc(S(N)(=O)=O)cc1Br` stands 83 nM; under `Cn1nc(S(N)(=O)=O)sc1=N`, 49 nM.

Regarding `NS(=O)(=O)c1ccc(CCO)cc1`, at Carbonic anhydrase 15, the inhibitory constant (Ki) is 4660 nM. At Carbonic anhydrase 15, `Nc1ccc(S(N)(=O)=O)cc1F` showed a Ki of 79 nM. On the same count and under the same terms, under `NS(=O)(=O)c1ccc(CO)cc1` stands 4560 nM; under `Nc1ccc(S(N)(=O)=O)cc1Cl`, 62 nM; under `Nc1ccc(S(=O)(=O)NCCc2ccc(S(N)(=O)=O)cc2)cc1`, 63 nM. At Carbonic anhydrase 15, `NNc1ccc(S(N)(=O)=O)cc1` had a Ki of 9540 nM. In the case of `NS(=O)(=O)c1ccc(S(=O)(=O)Nc2cccc3c(Cl)c[nH]c23)cc1`, at Carbonic anhydrase 15, the Ki was 72 nM.

Molecule `NS(=O)(=O)c1nnc(NS(=O)(=O)c2ccccc2)s1` [BENZOLAMIDE] came in with a Ki at Carbonic anhydrase 15 of 70 nM. Still for that read-out and setting: under `CCN[C@H]1CN(CCCOC)S(=O)(=O)c2sc(S(N)(=O)=O)cc21` [BRINZOLAMIDE] stands 61 nM; under `NS(=O)(=O)c1ccc(C(=O)O)cc1` [CARZENIDE], 4650 nM. Regarding `Cc1ccc(-c2cc(C(F)(F)F)nn2-c2ccc(S(N)(=O)=O)cc2)cc1` [CELECOXIB], at Carbonic anhydrase 6, the Ki was found to be 94 nM. `NS(=O)(=O)c1cc(Cl)c(Cl)c(S(N)(=O)=O)c1` [DICHLORPHENAMIDE] yielded a Ki at Carbonic anhydrase 15 of 95 nM. Still for that read-out and setting: under `CCOc1ccc2nc(S(N)(=O)=O)sc2c1` [ETHOXZOLAMIDE] stands 58 nM; under `NCc1ccc(S(N)(=O)=O)cc1` [MAFENIDE], 970 nM. As to `CC(=O)/N=c1/sc(S(N)(=O)=O)nn1C` [METHAZOLAMIDE], the affinity at Carbonic anhydrase 15, expressed as Ki, was 65 nM. Take `Cc1ccc(S(N)(=O)=O)cc1` [P-TOLUENESULFONAMIDE]: at Carbonic anhydrase 15, the Ki amounted to 7990 nM.

As to `Nc1ccc(S(N)(=O)=O)cc1` [SULFANILAMIDE], affinity at Carbonic anhydrase 15 was put at a Ki of 9610 nM. `CC1(C)O[C@@H]2[C@@H](CO[C@@]3(COS(N)(=O)=O)OC(C)(C)O[C@@H]23)O1` [TOPIRAMATE] showed a Ki at Carbonic anhydrase 15 of 78 nM. Still for that read-out and setting: under `NS(=O)(=O)Cc1noc2ccccc12` [ZONISAMIDE] stands 634 nM.
